Assay results: US20100249138A1, “MPZP: A SMALL MOLECULE CORTICOTROPIN-RELEASING FACTOR TYPE 1 RECEPTOR (CRF1) ANTOGONIST” (priority 2007, published 2010)
pIC50: −log10 of the molar value. Entries after “also recorded” stand apart in the source; their conditions may differ.

Experiments:
[1] = tested on: binge drinking of sweetened alcohol; conditions: Ji et al. 2007, in review; cited from earlier work
CRF1 receptors = target: T1, CRF1 receptors (Rattus norvegicus, UniProt P35353); experiment: [125I]-Tyr0-sauvagine competition binding, rat cerebellar membrane homogenates; parameters: from tissue; host or cells: rat cerebellum, membrane homogenate; conditions: read-out: IC50, displacement of specific [125I]-Tyr0-sauvagine binding
T1 sequence (P35353 24-415): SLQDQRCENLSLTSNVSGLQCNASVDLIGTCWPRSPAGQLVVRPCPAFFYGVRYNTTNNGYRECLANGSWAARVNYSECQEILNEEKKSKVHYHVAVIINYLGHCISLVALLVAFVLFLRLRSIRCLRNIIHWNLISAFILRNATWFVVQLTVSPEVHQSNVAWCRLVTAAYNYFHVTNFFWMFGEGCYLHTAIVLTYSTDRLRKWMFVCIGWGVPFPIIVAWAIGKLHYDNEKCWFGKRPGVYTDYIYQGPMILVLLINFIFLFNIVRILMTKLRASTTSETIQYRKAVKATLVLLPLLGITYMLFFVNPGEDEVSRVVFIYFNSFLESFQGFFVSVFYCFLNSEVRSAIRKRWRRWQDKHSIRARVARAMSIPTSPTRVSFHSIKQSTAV
Protocol: Binding activity of MPZP was determined in a competition assay using […] (2200 Ci/mmol; Perkin Elmer, Waltham, Mass.) as the radioligand. Cerebellum was homogenized in homogenizing buffer (Dulbecco's phosphate-buffered saline [PBS]:1.5 mM KH2PO4, 8.1 mM Na2HPO4, 2.7 mM KCl, 138 mM NaCl, pH 7.2, supplemented with 10 mM MgCl2, 2 mM EGTA) using a Polytron (Dispersing and Mixing Technology, Kinematica, Littau-Lucerne, Switzerland) at setting 6 for 2×15 seconds on ice. The homogenate was centrifuged at 45,000×g for 20 minutes at 4° C. The pellet was resuspended and spun at 45,000×g for 20 minutes at 4° C. The final pellet was resuspended in assay buffer (homogenizing buffer supplemented with protease inhibitor; 1 tablet/10 ml; Sigma CAT#58829-20TAB, St. Louis, Mo., pH 7.4) using a Polytron.
Med. Chem. (2000) 8:181-189], whose structural formula is shown below.
Total binding was determined using assay buffer in lieu of a CRF1 antagonist, and nonspecific binding was determined in the presence of 1 μM unlabeled sauvagine. The final radioligand concentration was 0.2 nM, and the reaction was incubated at room temperature for 2 hours. […] The pellet-containing tip was cut off and counted in an automated 10-detector gamma counter (MicroMedic Apex, ICN Biomedical, Costa Mesa, Calif.) at 80% efficiency. […]

[2] = tested on: defensive burying model of active anxiety-like behavior; experiment: Defensive burying test (Study 1); type: in vivo, rat
Source text: The defensive burying test was used to assess effects of MPZP on anxiety-like behavior [Treit et al., Pharmacol. Biochem. Behay. (1981) 15:619-626; De Boer et al., Eur. J. Pharmacol. (2003) 463:145-161]. This model has been validated by anxiolytic and anxiogenic compounds, which decrease and increase defensive burying behavior, respectively [Korte et al., Physiol. Behay. (1994) 56:115-120; De Boer et al., Eur. J. Pharmacol. (2003) 463:145-161]. For two consecutive days before defensive burying testing, animals were acclimated to the testing apparatus by placing them for 45 minutes in the testing cage (a polycarbonate rat housing cage with 2 cm of bedding covering the floor and a small hole centered on a long dimension of the cage 1 inch above the bedding to accommodate the shock probe on the subsequent test day). On the day of testing, animals were brought into the anteroom at least 2 hours before testing began. Subjects were subcutaneously pretreated with MPZP (0, 5, 20 mg/kg) in a between-subjects design 1 hour before their test session. For testing, animals were placed individually in the test cage, and a shock probe connected to a Coulbourn precision shocker (model E13-01, Coulbourn Instruments, Allentown, Pa.) delivered one 1.5 mA shock (lasting <1 s) upon contact. As soon as the animal was shocked (verified by a startle response), the shock current was deactivated, and the 10 minute test began. Contact with the shock probe under these conditions results in the rat displacing bedding material with treading-like movements of the forepaws and shoveling movements of the head, often directed toward the shock probe. Latency to the first display of burying behavior and time spent burying (in four 2.5 minute bins throughout the 10 minute test) were assessed [Korte et al., Physiol. Behay. (1994) 56:115-120]. […] The effect of MPZP on defensive burying behavior (latency to first bury and burying time) were analyzed by analysis of variance (ANOVA), in which Dose was a between-subjects factor and Time bin was a repeated measure for duration of burying.

[3] = tested on: cocaine self-administration; experiment: Cocaine self-administration in short access (ShA) and long access (LgA) rats; type: in vivo, rat; conditions: for cocaine intake compared with vehicle: 45 minutes before session

Structure (SMILES): COCCN(CCOC)c1cc(C)nc2c(-c3ccc(OC)cc3C)c(C)nn12 [MPZP, N,N-bis(2-methoxyethyl)-3-(4-methoxy-2-methylphenyl)-2,5-dimethyl-pyrazolo[1,5-a]pyrimidin-7-amine]
- nondependent binge drinking of sweetened alcohol [1]: had no effect
- pIC50 (CRF1 receptors): 8.21
- total duration of defensive burying behavior ([2]; 0, 5, 20 mg/kg s.c., systemic pretreatment): dose-dependently reduced; also recorded: reduced defensive burying time
- duration of burying across the 10-minute observation period ([2]; 20 mg/kg s.c., 1 hour before test, vs vehicle): significantly reduced
- latency to start burying ([2]; 5 and 20 mg/kg s.c., 1 hour before test, vs vehicle): increased the latency to start burying
- slope of linear trend dose function on cocaine intake ([3]; LgA rats): −0.601±0.176
- cocaine intake compared with vehicle ([3]; LgA rats, 10 mg/kg s.c.): significant decrease
- cocaine intake compared with vehicle ([3]; LgA rats, 27.5 mg/kg s.c.): significant decrease
- slope of linear trend dose function on cocaine intake ([3]; ShA rats): −0.254±0.106
- cocaine intake compared with vehicle ([3]; ShA rats, 27.5 mg/kg s.c.): significant decrease
